Assay results published in patent EP4635958A1, “PYRIMIDINE-CONTAINING POLYCYCLIC DERIVATIVE INHIBITOR, AND PREPARATION METHOD THEREFOR AND USE THEREOF” (Shanghai Hansoh Biomedical Co., Ltd., priority 2022, dated 2024).
Counter-ions that a name gives are not always drawn.

Assays:
p-ERK in AGS cells = experiment: Inhibition of p-ERK in AGS cells (LANCE Ultra phospho-ERK1/2 kit); type: cell-based; settings: Homo sapiens, AGS, 2 h, read-out: AGS_pERK IC50
Experimental: 1. Experimental objective: The inhibition activity of the example compounds on the phosphorylated ERK level in KRAS G12D mutant cells AGS was determined. 2. Experimental instruments: • 2.1 Instruments: Envison; Pipette (Eppendorf & Rainin) • 2.2 Reagents: AGS cells were purchased from COBIOER BIOSCIENCES CO., LTD, with a catalog number of CBP60476; Phosphorylated ERK1/2 (T202-Y204) LANCE Ultra Cellular Detection Kit was purchased from PerkinElmer, with a catalog number of TRF4000M; RPMI 1640 was purchased from Gibco, with a catalog number of 22400071; FBS was purchased from Gibco, with a catalog number of 10091148; PBS was purchased from Gibco, with a catalog number of 10010023; trypsin was purchased from Gibco, with a catalog number of 25200056; cell culture plates were purchased from Corning Company, with a catalog number of 3610; White opaque OptiPlate™-384 plates were purchased from PerkinElmer, with a catalog number of 6007290. 3. Experimental method: When AGS cells were cultured to appropriate confluence, the AGS cells were collected, and the cell density was adjusted to 4 × 10^5/mL using complete culture medium. The cell suspension was plated onto a 96-well plate at 100 µL per well, and the plate was placed in the incubator at 37°C and 5% CO2 for adherent culture overnight. Solutions of the compound with different concentrations were formulated using DMSO and complete culture medium, and a vehicle control was set up. The solutions of the compound were added to the 96-well plate at 25 µL per well, and the plate was placed in the incubator at 37°C and 5% CO2 for further culture for 2 h. Then, the supernatant of the cell culture plate was discarded, 50 µL of lysis buffer was added to each well, the cells were lysed at room temperature under shaking for 30 min, then placed in a centrifuge and centrifuged at 1000 rpm for 1 min. 15 µL of supernatant was transferred to a 384-well plate, 5 µL of detection mixture was added to each well (Eu-labeled anti-ERK1/2 (T202-Y204) Antibody at a final detection concentration of 0.5 nM and ULight labeled anti-ERK1/2 Antibody at a final detection concentration of 5 nM), centrifuged at 1000 rpm for 1 min, mixed evenly, and reacted at room temperature overnight. The plate was read using Envison and the signal values at the emission wavelengths of 620 nm and 665 nm were detected using a time-resolved fluorescence program. 4. […] Graphpad Prism software was used to fit the concentration and inhibition rate to a nonlinear regression curve, so as to obtain the IC50 value. Table 5: Inhibition activity of the compounds on p-ERK in AGS cells

[1] = Plasma stability test, dog plasma; type: in vitro ADME; settings: for half-life: read-out: t1/2 (converted);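 for all read-outs here: parent compound left in dog plasma quantified by LC-MS with positive electrospray ionization, selected reaction monitoring and an internal standard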
Experimental: Liquid chromatography-mass spectrometer, centrifuge, vortexer, pipette, continuous dispenser, 96-well plate, 50% methanol aqueous solution, acetonitrile solution containing internal standard, blank matrix (plasma of rat, dog, or human), Propantheline (propantheline bromide), Mevinolin (lovastatin), and test compound.
After whole blood was collected from animals or humans, it was placed in a test tube containing an anticoagulant and centrifuged at 3500 rpm for 10 min to collect the upper pale yellow plasma.
The compound was weighed and the stock solution was formulated with DMSO and the working solution was formulated with 100 mM phosphate buffer.
• Instrument: API4000 liquid chromatography-mass spectrometer, AB Company, USA; • the ion source was electrospray ionization source (ESI); • drying gas (N2) temperature was 500°C; • electrospray voltage was 5500V; • the detection method was positive ion detection; • the scanning method was selected reaction monitoring (MRM); • the scanning time was 0.1s.

[2] = tested on: human colorectal cancer cell line (GP2D); experiment: Anti-tumor efficacy in mouse transplanted tumor model of human colorectal cancer cell line (GP2D); type: in vivo, mice (BALB/c nude); settings: PO*BID
From the text: 8-10 week old female conventional immunodeficient mice (BALB/c nude) with a body weight of 18 g-22 g were used as experimental animals, and a transplanted tumor model of human colorectal cancer cell line (GP2D) was used to conduct in vivo efficacy experiments to test the anti-tumor results of the example compounds after gavage administration.
The example compounds of the present invention, made in house.
A certain amount of the example compound was weighed, and an appropriate amount of 10% vehicle (Solutol HS15) was added. The mixture was stirred on a magnetic stirrer for 0.5 h to formulate a homogeneous suspension at the desired concentration.
The human colorectal cancer cell line (GP2D) was derived from COBIOER BIOSCIENCES CO., LTD, cultured on DMEM medium (Gibco, 11995-065) supplemented with 10% fetal calf serum (Gibco, 10091-148) and 1% penicillin/streptomycin (Gibco, 15140-122) and observed under a microscope (Thermo Fisher, 311). The cells were routinely passaged when the cells reached 80%-90% confluence in the culture flask. The passaged cells were cultured in a 37°C, 5% CO2 incubator (Thermo Fisher, 311).
Under aseptic conditions, human colorectal cancer cells (GP2D) in the logarithmic growth phase were harvested using 0.25% trypsin-EDTA (Gibco, 25200-056), washed and resuspended with phosphate buffer. The cell suspension was mixed with Matrigel (Corning, 356234) at a 1 : 1 ratio (v/v) and implanted subcutaneously into the right anterior dorsal region of immunodeficient mice (BALB/c nude). Each mouse was inoculated with 5*10^6 cells in a volume of 100 microliters (µL). After inoculation, when the tumor volume reached 100-200 mm^3, the mice would be evenly randomized into 5 groups based on the tumor size, with 5 mice per group, for in vivo efficacy experiments. The positive control group was the compound MRTX-1133, and the negative control group was the vehicle group.
Mode of administration: The positive control group was intraperitoneally injected, and the example compounds were administered orally.
Twice a week, the long and short diameters of the tumor were measured using a vernier caliper, and the tumor volume (mm^3) was calculated using the formula: V = 0.5*D*d*d, where D and d are the long and short diameters of the tumor, respectively. The anti-tumor efficacy was determined by dividing the average increase in tumor volume of compound-treated animals by the average increase in tumor volume of untreated animals. The calculation formula for tumor inhibition rate was: When there is no tumor regression, TGI(%) = 100-[(Vt-V0) administration group/(Vt-V0) vehicle control group]*100%. When tumor regression occurs, TGI(%) = [1-(V1-V0) administration group/V0 vehicle control group]* 100%. All animals were euthanized after the experiment.

[3] = tested on: human colorectal cancer cell line (GP2D); experiment: as above; type: in vivo, mice (BALB/c nude); settings: 30mpk, PO*BID, Day 14

Compound | IC50 (p-ERK in AGS cells) | Remaining rate (%) 0 min ([1]; Dog plasma, 37°C, 0 min) | Remaining rate (%) 15 min ([1]; Dog plasma, 37°C, 15 min) | Remaining rate (%) 30 min ([1]; Dog plasma, 37°C, 30 min) | Remaining rate (%) 60 min ([1]; Dog plasma, 37°C, 60 min) | Remaining rate (%) 120 min ([1]; Dog plasma, 37°C, 120 min) | half-life ([1]; Dog plasma, 37°C) | also measured
C#Cc1c(F)ccc2cc(O)cc(-c3nc4c5c(nc(OCC6(CN7CCC(=NOC)CC7)CC6)nc5c3F)N3C[C@H]5CC[C@H](N5)[C@H]3[C@H](C)O4)c12 [Example 35-1, 1-((1-((((5S,5aS,6S,9R)-2-(8-ethynyl-7-fluoro-3-hydroxynaphthalen-1-yl)-1-fluoro-5-methyl-5a,6,7,8,9,10-hexahydro-5H-4-oxa-3,10a,11,13,14-pentaaza-6,9-methylenenaphtho[1,8-ab]heptalen-12-yl)oxo)methyl)cyclopropyl)methyl)piperidin-4-one O-methyloxime formate] | 2.7 nM |  |  |  |  |  |  | 
C#Cc1c(F)ccc2cc(O)cc(-c3nc4c5c(nc(OCC6(CN7CCC(=C(F)F)CC7)CC6)nc5c3F)N3C[C@H]5CC[C@H](N5)[C@H]3CO4)c12 [Example 1-1, 4-((5aS,6S,9R)-12-((1-((4-(difluoromethylene)piperidin-1-yl)methyl)cyclopropyl)methoxy)-1-fluoro-5a,6,7,8,9,10-hexahydro-5H-4-oxa-3,10a,11,13,14-pentaaza-6,9-methylenenaphtho[1,8-ab]heptalene-2-yl)-5-ethynyl-6-fluoronaphthalen-2-ol] | 7 nM | 100.00% | 100.25% | 105.57% | 104.40% | 93.99% | 48.9 h | 
[2H]C([2H])(Oc1nc2c3c(nc(-c4cc(O)cc5ccc(F)c(C#C)c45)c(F)c3n1)O[C@@H](C)[C@@H]1[C@@H]3CC[C@H](CN21)N3)C1(C([2H])([2H])N2CCC(=CF)CC2)CC1 [Example 291, 5-ethynyl-6-fluoro-4-((5S,5aS,6S,9R)-1-fluoro-12-((1-((4-(fluoromethylene)piperidin-1-yl)methyl-d2)cyclopropyl)methoxy-d2)-5-methyl-5a,6,7,8,9,10-hexahydro-5H-4-oxa-3,10a,11,13,14-pentaaza-6,9-methylnaphtho[1,8-ab]hept-2-yl)naphthalen-2-ol] | 2.3 nM | 100.00% | 104.39% | 94.89% | 103.00% | 99.65% | 94.6 h | 
[2H]C([2H])([2H])[C@@H]1Oc2nc(-c3cc(O)cc4ccc(F)c(C#C)c34)c(F)c3nc(OCC4(CN5CCC(=C(F)F)CC5)CC4)nc(c23)N2C[C@H]3CC[C@H](N3)[C@@H]12 [Example 161, 4-((5S,5aS,6S,9R)-12-((1-((4-(difluoromethylene)piperidin-1-yl)methyl)cyclopropyl)methoxy)-1-fluoro-5-(methyl-d3)-5a,6,7,8,9,10-hexahydro-5H-4-oxa-3,10a,11,13,14-pentaaza-6,9-methylnaphtho[1,8-ab]hept-2-yl)-5-ethynyl-6-fluoronaphthalen-2-ol] | 4.9 nM |  |  |  |  |  | 31.4 h | Tumor volume (mm^3, Mean ± SD) Day 0 ([2]; 30mpk): 167 mm^3; TGI(%) Day 14 ([2]; 30mpk): 134.18%; ΔT/ΔC(%) Day 14 ([2]; 30mpk): 13.93%; Tumor volume (mm^3, Mean ± SD) Day 0 ([2]; 100mpk): 167 mm^3; TGI(%) Day 14 ([2]; 100mpk): 153.75%; Tumor volume (mm^3, Mean ± SD) Day 14 ([2]; 100mpk): 77 mm^3; ΔT/ΔC(%) Day 14 ([2]; 100mpk): 9.79%; Remaining rate (%) 0 min ([1]; dog, plasma, 0 h): 100.00%; Remaining rate (%) 15 min ([1]; dog, plasma, 0.25 h): 91.74%; Remaining rate (%) 30 min ([1]; dog, plasma, 0.5 h): 92.09%; Remaining rate (%) 60 min ([1]; dog, plasma, 1 h): 90.97%; Remaining rate (%) 120 min ([1]; dog, plasma, 2 h): 88.28%; Tumor volume (mm^3, Mean ± SD) Day 14 [3]: 110 mm^3
4-((5S,5aS,6R,9S)-12-((1-((((R)-4-(difluoromethylene)-2-methylpiperidin-1-yl)methyl)cyclopropyl)methoxy)-1-fluoro-5-(methyl-d3)-5a,6,7,8,9,10-hexahydro-5H-4-oxa-3,10a,11,13,14-pentaaza-6,9-methylnaphtho[1,8-ab]hept-2-yl)-5-ethynyl-6-fluoronaphthalen-2-ol [Example 162] |  |  |  |  |  |  |  | Tumor volume (mm^3, Mean ± SD) Day 0 ([2]; 30mpk): 167 mm^3; TGI(%) Day 14 ([2]; 30mpk): 122.15%; ΔT/ΔC(%) Day 14 ([2]; 30mpk): 16.47%; Tumor volume (mm^3, Mean ± SD) Day 0 ([2]; 100mpk): 167 mm^3; TGI(%) Day 14 ([2]; 100mpk): 133.67%; Tumor volume (mm^3, Mean ± SD) Day 14 ([2]; 100mpk): 111 mm^3; ΔT/ΔC(%) Day 14 ([2]; 100mpk): 14.04%; Tumor volume (mm^3, Mean ± SD) Day 14 [3]: 130 mm^3
[2H]C([2H])([2H])[C@@H]1Oc2nc(-c3cc(N)cc(Cl)c3C(F)(F)F)c(F)c3nc(OCC4(CN5CCC(=NOC)CC5)CC4)nc(c23)N2C[C@H]3CC[C@H](N3)[C@@H]12 [Example 339] | 4.4 nM |  |  |  |  |  |  | 
CON=C1CCN(CC2(COc3nc4c5c(nc(-c6cc(N)cc(Cl)c6C(F)(F)F)c(F)c5n3)O[C@@H](C)[C@@H]3[C@@H]5CC[C@H](CN43)N5)CC2)CC1 [Example 337, 1-((1-((((5S,5aS,6S,9R)-2-(5-amino-3-chloro-2-(trifluoromethyl)phenyl)-1-fluoro-5-methyl-5a,6,7,8,9,10-hexahydro-5H-4-oxa-3,10a,11,13,14-pentaaza-6,9-methylnaphtho[1,8-ab]heptene-12-yl)oxy)methyl)cyclopropyl)methyl)piperidin-4-one O-methyloxime] | 4.6 nM |  |  |  |  |  |  | 
[2H]C([2H])([2H])[C@@H]1Oc2nc(-c3cc(O)cc4ccc(F)c(C#C)c34)c(F)c3nc(OCC4(CN5CCC(=CF)CC5)CC4)nc(c23)N2C[C@H]3CC[C@H](N3)[C@@H]12 [Example 164] | 3.6 nM | 100.00% | 92.40% | 94.94% | 96.81% | 91.42% | 51.9 h | 
C#Cc1c(F)ccc2cc(O)cc(-c3nc4c5c(nc(OCC6(CN7CCC(=C(F)F)CC7)CC6)nc5c3F)N3C[C@H]5CC[C@H](N5)[C@H]3[C@H](C)O4)c12 [Example 19-1, 4-((5S,5aS,6S,9R)-12-((1-((4-(difluoromethylene)piperidin-1-yl)methyl)cyclopropyl)methoxy)-1-fluoro-5-methyl-5a,6,7,8,9,10-hexahydro-5H-4-oxa-3,10a,11,13,14-pentaaza-6,9-methylnaphtho[1,8-ab]hept-2-yl)-5-ethynyl-6-fluoronaphthalene-2-ol] | 5.6 nM | 100.00% | 95.89% | 101.96% | 101.84% | 94.59% | 75.5 h | 
